The values that follow come from patent publication US20020055465A1, “Nocathiacin antibiotics prepared by biotransformation or chemical methods” (priority 2000, published 2002).

Converted amounts (≈) assume the structure as drawn. Where a name gives a salt, the structure may show the parent alone. Read-outs that look alike come from different tables or passages of the source.

The subject of assay [1] is Staphylococcus aureus A15090. Description: Systemic Staphylococcus aureus infection model. Conditions: female ICR mice infected IP with S. aureus A15090; compound SC at 1 and 4 hours post-infection. Format: in vivo. Here is the method:
Nocathiacin IV and nocathiacin IV 6-deoxyglucoside were evaluated for antibiotic activity in vivo, in a systemic infection model using female ICR mice. The animals were infected intraperitoneally (IP) with 6.5×10^6 CFU of an overnight culture of Staphylococcus aureus A15090 suspended in 7% mucin. The compound was dissolved in a test formulation consisting of 10% DMSO, 5% Tween 80 and 85% water. The solution was administered subcutaneously (SC) at 100 mg/kg total dose (2×50 mg/kg doses at 1 and 4 hours post-infection). The PD50 of nocathiacin IV was determined to be 1.07 mg/kg. The PD50 of nocathiacin IV 6-deoxyglucoside was determined to be 6.4 mg/kg.

Another assay relates to Enterococcus faecalis. Nature of the assay: MIC, broth micro dilution assay (NCCLS). The format is cell-based. Particulars: strain A20688. Here is the method: (§1) The serial broth dilution method used Mueller-Hinton medium except for the Streptococcus pneumoniae which was tested in 50% Mueller-Hinton medium and 50% Todd Hewitt medium. The final bacterial inoculate contained approximately 5×10^5 cfu/well and was run on microtiter plates. The volume of each well was 100 μL and the plates were incubated at 35° C. for 18 hours in ambient air. The MIC was defined as the lowest drug concentration that prevented visible growth.

The subject of assay [2] is Moraxella catarrhalis/β-lactamase positive. Description: MIC, broth micro dilution assay (NCCLS). Format: cell-based. Particulars: strain A22344. Here is the method: as §1
In assay [3] the test system is Staphylococcus haemolyticus. Description: MIC, broth micro dilution assay (NCCLS). Format: cell-based. Conditions: strain A27298. As for the experimental part: as §1
A further assay has as its system Streptococcus pneumoniae. Nature of the assay: MIC, broth micro dilution assay (NCCLS). The format is cell-based. Here is the method: as §1
The test system of a further assay is Enterococcus faecium. Nature of the assay: MIC, broth micro dilution assay (NCCLS). The format is cell-based. As for the experimental part:
as §1

In assay [4] the test system is Bacillus subtilis/ATCC6633. Nature of the assay: MIC, broth micro dilution assay (NCCLS). The format is cell-based. As for the experimental part: as §1
The subject of another assay is Staphylococcus aureus. Nature of the assay: MIC, broth micro dilution assay (NCCLS). Format: cell-based. Here is the method:
as §1

For assay [5], the system named is Staphylococcus epidermidis. Description: MIC, broth micro dilution assay (NCCLS). Format: cell-based. Particulars: strain A24548. Here is the method:
as §1

The mark [6] stands for this setting: Enterococcus faecalis + 50% calf serum.
Where [7] appears, read: Enterococcus faecalis, read-out: MIC.
The mark [8] stands for this setting: Streptococcus pneumoniae, strain A9585, 50% Mueller-Hinton/50% Todd Hewitt medium.
Where [9] appears, read: Streptococcus pneumoniae/penicillin intermediate, strain A27881.
Setting [10] is: Streptococcus pneumoniae/penicillin resistant, strain A28272, read-out: MIC.
Where [11] appears, read: Enterococcus faecium/vancomycin resistant, strain A28142.
The mark [12] stands for this setting: 209P / ATCC 6538P, Staphylococcus aureus/209P/ATCC6538P, strain A9497.
Setting [13] is: Staphylococcus aureus + 50% calf serum, strain A15090.
Where [14] appears, read: Staphylococcus aureus + 50% calf serum, strain A27223.
The mark [15] stands for this setting: Staphylococcus aureus/homo methicillin resistant, strain A27223.
Setting [16] is: Staphylococcus aureus/β lactamase positive, strain A15090.

What is called MIC is the smallest concentration in the dilution series that meets the test's criterion for growth inhibition.

For `CO/C(C)=C1/NC(=O)C(C(C)O)NC(=O)c2csc(n2)-c2cc(OC3OC(C)C(O)C(O)C3O)c(-c3nc(C(N)=O)cs3)nc2-c2csc(n2)C2COC(=O)c3c4c5c(cccc5n3O)COC(=O)C(OC3CC(C)(O)C(N(C)C)C(C)O3)C(OC4)C(NC(=O)c3csc1n3)c1nc(cs1)C(=O)N2` (stereo not shown) [nocathiacin IV 6-deoxyglucoside], the PD50 in [1] was 6.4 mg/kg. In addition, the MIC with Enterococcus faecalis (setting [6]) worked out at 0.25 µg/mL; in the assay on Enterococcus faecalis (setting [7]) it was 0.25 µg/mL (≈ 0.165 µM); in assay [2], 2 µg/mL (≈ 1.32 µM); in [3], 0.5 µg/mL (≈ 0.33 µM); against Streptococcus pneumoniae (setting [8]) it was 0.03 µg/mL (≈ 0.0198 µM); against Streptococcus pneumoniae (setting [9]) it was 0.03 µg/mL (≈ 0.0198 µM). Also, the MIC was 0.03 µg/mL (≈ 0.0198 µM) in the assay with Streptococcus pneumoniae (setting [10]); 0.5 µg/mL (≈ 0.33 µM) in the assay on Enterococcus faecium (setting [11]); 0.5 µg/mL (≈ 0.33 µM) against Enterococcus faecium (strain A24885); 0.5 µg/mL (≈ 0.33 µM) in assay [4]; 0.5 µg/mL (≈ 0.33 µM) in the assay on Staphylococcus aureus (setting [12]); 0.25 µg/mL with Staphylococcus aureus (setting [13]). Also, the MIC stood at 0.25 µg/mL with Staphylococcus aureus (setting [14]), 0.5 µg/mL (≈ 0.33 µM) against Staphylococcus aureus (setting [15]), 0.5 µg/mL (≈ 0.33 µM) against Staphylococcus aureus (setting [16]) and 0.25 µg/mL (≈ 0.165 µM) in assay [5].
In assay [1], `CO/C(C)=C1/NC(=O)C(C(C)O)NC(=O)c2csc(n2)-c2cc(O)c(-c3nc(C(N)=O)cs3)nc2-c2csc(n2)C2COC(=O)c3c4c5c(cccc5n3O)COC(=O)C(OC3CC(C)(O)C(N(C)C)C(C)O3)C(OC4)C(NC(=O)c3csc1n3)c1nc(cs1)C(=O)N2` (stereo not shown) [nocathiacin IV] showed a PD50 of 1.07 mg/kg.
With `CO/C(C)=C1/NC(=O)C(C(C)O)NC(=O)c2csc(n2)-c2cc(O)c(-c3nc(C(N)=O)cs3)nc2-c2csc(n2)C2COC(=O)c3c4c5c(cccc5n3O)COC(=O)C(OC3CC(C)(O)C(N(C)C)C(C)O3)C(OC4)C(NC(=O)c3csc1n3)c1nc(cs1)C(=O)N2` (stereo not shown) [Nocathiacin IV (HCI salt), nocathiacin IV], the MIC in the assay on Enterococcus faecalis (setting [6]) came to 0.03 µg/mL; in the assay with Enterococcus faecalis (setting [7]) it was 0.03 µg/mL; in assay [2], 0.25 µg/mL; in [3], 0.06 µg/mL; in the assay with Streptococcus pneumoniae (setting [8]), 0.001 µg/mL; against Streptococcus pneumoniae (setting [9]), 0.001 µg/mL. Moreover, the minimal inhibitory concentration (MIC) in the assay on Streptococcus pneumoniae (setting [10]) is 0.001 µg/mL; against Enterococcus faecium (setting [11]), 0.03 µg/mL; against Enterococcus faecium (strain A24885), 0.06 µg/mL; in assay [4], 0.06 µg/mL; with Staphylococcus aureus (setting [12]) it was 0.03 µg/mL; in the assay on Staphylococcus aureus (setting [13]), 0.03 µg/mL. The MIC with Staphylococcus aureus (setting [14]) came out at 0.03 µg/mL; in the assay with Staphylococcus aureus (setting [15]), 0.03 µg/mL; with Staphylococcus aureus (setting [16]) it was 0.03 µg/mL; in [5] it was 0.06 µg/mL.
